# Columns and labels:
# [1] = test system: adult American dog tick (Dermacentor variabilis); experiment: Example 4: efficacy against adult American dog tick infestations on dogs; assay type: in vivo; conditions: for therapeutic efficacy: 24 hour post-treatment
# Protocol: The therapeutic (knockdown) and residual efficacy of 7, administered orally at a point dosages of 5 and 25 mg/kg bodyweight, was evaluated against adult American dog tick (D. variabilis) and cat flea (C. felis) infestations on dogs. Sixteen (16) male and female beagle dogs were allocated to one of four treatment groups: Untreated control group (n=4 dogs); 7, 5 mg/kg liquid oral dosage form (n=4 dogs); 7, 25 mg/kg liquid oral dosage form (n=4 dogs); and 7, 25 mg/kg solid oral dosage form. Liquid dosage forms were prepared by dissolving 7 in a solution of 55% polyethylene glycol-300, 35% propylene glycol and 10% water at 25 mg/ml. Solid oral dosage form was prepared by thoroughly mixing 7 with microcrystalline cellulose and croscarmellose sodium (50:47:3, w/w) and placing into size 00 gelatin capsules. On Day 0, all dogs were orally administered 7 at the prescribed point dosages. Twenty-four (24) hours before treatment (Day −1), all dogs were infested with approximately 50 unfed, adult-stage American dog ticks (D. variabilis; approximately 50% male and 50% female). […] For all groups, dogs were re-infested with approximately 50 unfed, adult D. variabilis ticks on Days 5 and 12, with tick classification, counts and removal on Days 7 and 14 (approximately 48 hours after each infestation). For negative control and 7 (25 mg/kg solid oral dosage form) groups, dogs were re-infested with approximately 50 unfed, adult D. variabilis ticks on Days 19 and 28, with tick classification, counts and removal on Days 21 and 30. Immediately following removal of ticks on Day 30, dogs in the negative control and 7 (25 mg/kg solid oral dosage form) groups were infested with approximately 100 unfed, adult cat fleas (C. felis). Flea counts were conducted approximately 48 hours later, on Day 32.
# The total number of live ticks or fleas (normal plus moribund classification) present on each dog was determined for each interval, and this number was transformed using the natural logarithm transformation plus one (Ln count+1); addition of one to each count served to adjust for counts that were zero. Geometric mean (GM) group tick or flea counts were obtained via back-transformation of group mean transformed counts and subtracting one. The negative control group was used for comparison to 7 groups for the calculation of percent efficacy (% reduction in live tick or flea counts). GM percent efficacy of treatments was calculated using the following formula: […]
# [2] = Tolerability of oral treatment in dogs; assay type: in vivo, beagle dogs
# Protocol: The therapeutic (knockdown) and residual efficacy of 7, administered orally at a point dosages of 5 and 25 mg/kg bodyweight, was evaluated against adult American dog tick (D. variabilis) and cat flea (C. felis) infestations on dogs. Sixteen (16) male and female beagle dogs were allocated to one of four treatment groups: Untreated control group (n=4 dogs); 7, 5 mg/kg liquid oral dosage form (n=4 dogs); 7, 25 mg/kg liquid oral dosage form (n=4 dogs); and 7, 25 mg/kg solid oral dosage form. Liquid dosage forms were prepared by dissolving 7 in a solution of 55% polyethylene glycol-300, 35% propylene glycol and 10% water at 25 mg/ml. Solid oral dosage form was prepared by thoroughly mixing 7 with microcrystalline cellulose and croscarmellose sodium (50:47:3, w/w) and placing into size 00 gelatin capsules. On Day 0, all dogs were orally administered 7 at the prescribed point dosages. Twenty-four (24) hours before treatment (Day −1), all dogs were infested with approximately 50 unfed, adult-stage American dog ticks (D. variabilis; approximately 50% male and 50% female). On Day 2, approximately 48 hours after treatment, ticks were removed and counts were conducted to determine the number and life-status classification of ticks present on all dogs (normal, moribund or dead; attached or detached). For all groups, dogs were re-infested with approximately 50 unfed, adult D. variabilis ticks on Days 5 and 12, with tick classification, counts and removal on Days 7 and 14 (approximately 48 hours after each infestation). For negative control and 7 (25 mg/kg solid oral dosage form) groups, dogs were re-infested with approximately 50 unfed, adult D. variabilis ticks on Days 19 and 28, with tick classification, counts and removal on Days 21 and 30. Immediately following removal of ticks on Day 30, dogs in the negative control and 7 (25 mg/kg solid oral dosage form) groups were infested with approximately 100 unfed, adult cat fleas (C. felis). Flea counts were conducted approximately 48 hours later, on Day 32.
# The therapeutic (knockdown) and residual efficacy of 7 and 8, each administered orally at a point dose of either 25 mg/kg or 50 mg/kg bodyweight, was evaluated against adult tick (Dermacentor variabilis and Rhipicephalus sanguineus) infestations on dogs. Twenty (20) male and female beagle dogs were allocated to one of five treatment groups, four (4) dogs per group: Untreated control; 7, 25 mg/kg; 7, 50 mg/kg; 8, 25 mg/kg; and 8, 50 mg/kg. On Day −1, all dogs were infested with approximately 50 unfed, adult D. variabilis ticks. On Day 0, dogs were orally administered gelatin capsules containing either 7 or 8 (50% technical active, 47% microcrystalline cellulose and 3% croscarmellose sodium, w/w) so as to achieve the desired point dosages. Ticks were counted and classified on all dogs, but not removed, on Day 1 (approximately 24 hours after treatment). On Day 2, approximately 48 hours after treatment, ticks were counted, classified and removed. Dogs were re-infested with the same number of D. variabilis ticks on Days 5, 12 and 19 with corresponding 48 hour post-infestation tick counts on Days 7, 14 and 21. Dogs were infested with approximately 50 unfed, adult brown dog ticks (Rhipicephalus sanguineus; approximately 50% male and 50% female) on Days 15 and 28, with corresponding 48 hour post-infestation tick counts on Days 17 and 30. GM percent efficacy of treatments against both tick species was calculated using the following formula: […]
# The efficacy of 7, administered orally at a point dose of 25 mg/kg bodyweight, was evaluated against adult tick (Dermacentor variabilis) infestations. Twelve (12) male and female beagle dogs were allocated to three treatment groups: Untreated, negative control A; 7 group B; and 7 group C (n=4 dogs per group). Dogs were infested with approximately 50 unfed, adult D. variabilis ticks on Days −1, 5, 12, 19 and 28. […]
# [3] = 5 mg/kg oral, liquid dosage form, Day 2
# [4] = 5 mg/kg oral, liquid dosage form, Day 7
# [5] = 5 mg/kg oral, liquid dosage form, Day 14
compound,measurement,setting,value
"CC1(C)OB(O)c2ccc(C3=NOC(c4cc(Cl)c(Cl)c(Cl)c4)(C(F)(F)F)C3)cc21 (racemic) [Compound 7, 3,3-Dimethyl-5-(5-(3,4,5-trichlorophenyl)-5-(trifluoromethyl)-4,5-dihydroisoxazol-3-yl)benzo[c][1,2]oxaborol-1(3H)-ol]",therapeutic and residual efficacy,"[1]; 5 mg/kg liquid oral dosage form, all intervals",< 70%
same,% efficacy,[1]; [3],(68.2) %
same,Geometric mean group live tick count,[1]; [3],10.6
same,% efficacy,[1]; [4],(0.0) %
same,Geometric mean group live tick count,[1]; [4],36.5
same,% efficacy,[1]; [5],(0.0) %
same,Geometric mean group live tick count,[1]; [5],36.8
same,therapeutic efficacy,"[1]; 25 mg/kg oral, liquid dosage form",100%
same,Geometric mean group live tick count,"[1]; 25 mg/kg oral, liquid dosage form, Day 2",0.0
same,Geometric mean group live tick count,"[1]; 25 mg/kg oral, liquid dosage form, Day 7",2.6
same,Geometric mean group live tick count,"[1]; 25 mg/kg oral, liquid dosage form, Day 14",16.9
same,therapeutic efficacy,"[1]; 25 mg/kg oral, solid dosage form",100%
same,Geometric mean group live tick count,"[1]; 25 mg/kg oral, solid dosage form, Day 2",0.0
same,Geometric mean group live tick count,"[1]; 25 mg/kg oral, solid dosage form, Day 7",0.7
same,Geometric mean group live tick count,"[1]; 25 mg/kg oral, solid dosage form, Day 14",6.3
same,Geometric mean group live tick count,"[1]; 25 mg/kg oral, solid dosage form, Day 21",6.8
same,Geometric mean group live tick count,"[1]; 25 mg/kg oral, solid dosage form, Day 30",10.7
same,tolerability,"[2]; oral 25 mg/kg, Example 7",well tolerated
same,tolerability,"[2]; oral 50 mg/kg, Example 6",well tolerated
same,tolerability,"[2]; oral 5 or 25 mg/kg, Example 4",well tolerated
same,tolerability,"[2]; oral 25 or 50 mg/kg, Example 5",well tolerated

# — patent publication US9156860B2, “Boron-containing small molecules” (Anacor Pharmaceuticals, Inc., priority 2011, dated 2015)
